The source of these data is US20240174651A1, “COMPOUNDS AND USE THEREOF FOR TREATMENT OF NEURODEGENERATIVE, DEGENERATIVE AND METABOLIC DISORDERS” (THE SCRIPPS RESEARCH INSTITUTE, priority 2021, published 2024).

pEC50: −log10 of the molar value. Where “and” joins values, the source holds several entries; their conditions need not be identical. Equal entries are not always repeated.

The test system of one test is PK1 neuroblastoma cells exposed to TPrP. As to the kind of experiment: cells. As to conditions: PK-1, 96 h, read-out: TPrP EC50. In kind it is cell-based.
Take `c1coc(CNc2nnc(Cc3ccncc3)c3ccccc23)c1` [SR-30005]: the pEC50 is 6.85. As for `c1ccc2[nH]c(CNc3nnc(Cc4ccncc4)c4ccccc34)cc2c1` [SR-30006], the pEC50 was 7.30. For the compound `CC(=O)c1cccc(Nc2nnc(C(C)c3ccncc3)c3ccccc23)c1` (centres unmarked) [SR-34644], the pEC50 was 7.35. `COc1ccc2oc(Nc3nnc(Cc4ccncc4)c4ccccc34)nc2c1` [SR-32076]: the pEC50 is 7.70. As for `c1ccc2c(c1)CCC2Nc1nnc(Cc2ccncc2)c2ccccc12` (centres unmarked) [SR-27884], the pEC50 is 6.30. In the case of `O=S(=O)(c1cccc(Nc2nnc(Cc3ccncc3)c3ccccc23)c1)N1CC2CCC(C1)O2` [SR-35428], the pEC50 is 8.22. Consider `Cc1ccc2nc(Nc3nnc(Cc4ccncc4)c4ccccc34)oc2c1` [SR-32066], for which the pEC50 was 7.30. On the same count and under the same terms, to `CC(=O)c1cccc(Nc2nnc(C(c3ccncc3)C(F)(F)F)c3ccccc23)c1` (centres unmarked) [SR-34646] belongs less than 6.30; to `Cc1cc(C(C)c2nnc(NCC3COc4ccccc4C3)c3ccccc23)ccn1` (centres unmarked) [SR-35432], less than 6.05; to `c1ccc2oc(CNc3nnc(Cc4ccncc4)c4ccccc34)nc2c1` [SR-27888], 7.35. For the compound `CC(c1ccncc1)c1nnc(NCc2cc3ccccc3o2)c2ccccc12` (centres unmarked) [SR-34645], the negative-log EC50 (pEC50) was approximately 6.30.

Take `Cc1cc(C(C)c2nnc(NC3CCc4ccccc43)c3ccccc23)ccn1` (centres unmarked) [SR-35430]: the pEC50 was less than 6.05. The same measure, in the same setting: to `Cc1cc(Cc2nnc(Nc3nc4ccccc4o3)c3ccccc23)cc(C)n1` [SR-32065] belongs less than 6.40; to `Fc1ccc2nc(Nc3nnc(Cc4ccncc4)c4ccccc34)oc2c1` [SR-32071], 7.05. With `Fc1cccc2oc(Nc3nnc(Cc4ccncc4)c4ccccc34)nc12` [SR-32070], the pEC50 is 7.70. `c1ccc2c(c1)CC(CNc1nnc(Cc3ccncc3)c3ccccc13)CO2` (centres unmarked) [SR-27890]: the negative logarithm of the EC50 (pEC50) was 6.78. For the compound `c1ccc2cc3oc(Nc4nnc(Cc5ccncc5)c5ccccc45)nc3cc2c1` [SR-32073], the pEC50 was 6.60.

`O=[N+]([O-])c1cccc2oc(Nc3nnc(Cc4ccncc4)c4ccccc34)nc12` [SR-32069]: the pEC50 was 8.10.

On to `c1ccc2oc(Nc3nnc(Cc4ccncc4)c4ccccc34)nc2c1` [SR-30010], for which the negative logarithm of the EC50 (pEC50) was 8.70. Still for that read-out and setting: to `c1ccc2[nH]c(CNc3nnc(Cc4ccncc4)c4ccccc34)nc2c1` [SR-27887] belongs 6.66; to `CC(=C(F)F)c1cccc(Nc2nnc(Cc3ccncc3)c3ccccc23)c1` [SR-31144], less than 6.40; to `CC(=O)c1cccc(Nc2nnc(Cc3ccnc(C)c3)c3ccccc23)c1` [SR-33871], 7.15.

In the case of `c1ccc2c(c1)CC(Nc1nnc(Cc3ccncc3)c3ccccc13)CO2` (centres unmarked) [SR-27889], the pEC50 is 6.55.

In the case of `Cc1cc(C(C)c2nnc(NCc3ccco3)c3ccccc23)ccn1` (centres unmarked) [SR-35433], the pEC50 is less than 6.05. On to `O=S(=O)(c1cccc(Nc2nnc(Cc3ccncc3)c3ccccc23)c1)N1C2CCC1COC2` [SR-35427], for which the pEC50 was 8.15. As for `c1ccc2c(c1)ccc1oc(Nc3nnc(Cc4ccncc4)c4ccccc34)nc12` [SR-32077], the pEC50 was 6.87. Consider `c1ccc2c(c1)CC(Nc1nnc(Cc3ccncc3)c3ccccc13)C2` [SR-27885], for which the pEC50 is 6.70. The same measure, in the same setting: to `Cc1cc(C(C)c2nnc(Nc3cccc(C4COC4)c3)c3ccccc23)ccn1` (centres unmarked) [SR-35431] belongs less than 6.05; to `Clc1ccc(Nc2nnc(Cc3ccncc3)c3ccccc23)cc1` [vatalanib, reference compound], 7.22; to `C/C(=N\O)c1cccc(Nc2nnc(Cc3ccncc3)c3ccccc23)c1` [SR-30013], 8.70. On the same count and under the same terms, to `CO/N=C(\C)c1cccc(Nc2nnc(Cc3ccncc3)c3ccccc23)c1` [SR-30014] belongs 8.70; to `CC(O)c1cccc(Nc2nnc(Cc3ccncc3)c3ccccc23)c1` (centres unmarked) [SR-29684], 8.70; to `COc1ccc(CNc2nnc(Cc3ccncc3)c3ccccc23)cc1OC` [SR-27886], 6.82. Consider `Cc1cc(Cc2nnc(Nc3nc4ccccc4o3)c3ccccc23)ccn1` [SR-33872], for which the pEC50 was less than 6.30.

For `COc1cc(Cc2nnc(NCc3cc4ccccc4o3)c3ccccc23)ccn1` [SR-33875], the pEC50 is less than 6.30.

In the case of `O=S(=O)(c1cccc(Nc2nnc(Cc3ccncc3)c3ccccc23)c1)N1CCOCC1` [SR-35424], the pEC50 was 8.05. For `CC(=O)c1cccc(Nc2nnc(Cc3ccncc3)c3ccccc23)c1` [SR005], the pEC50 was 7.82.

`O=S(=O)(c1ccc(Nc2nnc(Cc3ccncc3)c3ccccc23)cc1)N1CCOCC1` [SR-35425]: the pEC50 was 8.30. For `CC1(c2cccc(Nc3nnc(Cc4ccncc4)c4ccccc34)c2)OCCO1` [SR-30012], the pEC50 was 8.70.

For `Cc1cccc2nc(Nc3nnc(Cc4ccncc4)c4ccccc34)oc12` [SR-32075], the pEC50 is less than 6.40.

As for `Cc1cccc2oc(Nc3nnc(Cc4ccncc4)c4ccccc34)nc12` [SR-32072], the pEC50 is 7.52.

`COc1cc(Cc2nnc(Nc3cccc(C(C)=O)c3)c3ccccc23)ccn1` [SR-33874]: the negative logarithm of the EC50 (pEC50) is less than 6.30. Consider `Fc1ccc2oc(Nc3nnc(Cc4ccncc4)c4ccccc34)nc2c1` [SR-32067], for which the negative-log EC50 (pEC50) was 7.70. Same read-out and setting: to `c1ccc(OCCNc2nnc(Cc3ccncc3)c3ccccc23)cc1` [SR-27892] belongs 6.30; to `Cc1cc(C(C)c2nnc(NCC3CCOCC3)c3ccccc23)ccn1` (centres unmarked) [SR-35429, 4-(1-(2-methylpyridin-4-yl)ethyl)-N-((tetrahydro-2H-pyran-4-yl)methyl)phthalazin-1-amine], 7.59.

For the compound `CC(=O)c1cccc(Nc2nnc(Cc3cc(C)nc(C)c3)c3ccccc23)c1` [SR-32064], the pEC50 was less than 6.40.

For the compound `c1ccc2oc(CNc3nnc(Cc4ccncc4)c4ccccc34)cc2c1` [SR-30011], the pEC50 is 8.70. `c1ccc2c(NCC3CCCCO3)nnc(Cc3ccncc3)c2c1` (centres unmarked) [SR-30007]: the pEC50 is 7.22.

For `O=[N+]([O-])c1ccc2oc(Nc3nnc(Cc4ccncc4)c4ccccc34)nc2c1` [SR-32068], the pEC50 is 7.70. Turning to `c1ccc2c(NCC3CCCO3)nnc(Cc3ccncc3)c2c1` (centres unmarked) [SR-30004], the pEC50 is 6.82. The same measure, in the same setting: to `CC(=O)c1cccc(Nc2nnc(Cc3ccnc(C(F)(F)F)c3)c3ccccc23)c1` [SR-33873] belongs less than 6.30; to `CC(=O)c1cccc(Nc2nnc(Cc3ccncc3C(F)(F)F)c3ccccc23)c1` [SR-33876], less than 6.30. The same measure, in the same setting: to `c1ccc2c(NCC3CCOCC3)nnc(Cc3ccncc3)c2c1` [SR-30008] belongs 7.82.

On to `c1cc(Nc2nnc(Cc3ccncc3)c3ccccc23)cc(C2COC2)c1` [SR-35426], for which the pEC50 was 8.00. Regarding `Fc1cccc2nc(Nc3nnc(Cc4ccncc4)c4ccccc34)oc12` [SR-32074], the pEC50 was 7.52.

Staying with this test, now noted: read-out: TPrP EC50.
Turning to `CC(=O)c1cccc(Nc2nnc(Cc3ccncc3)c3ccccc23)c1` [SR005], the pEC50 is 7.70 and 7.60.

As usually defined, the pEC50 is −log10 of the EC50, conventionally taken in molar units.
